Data: patent publication US20250032651A1, “[177LU] LUTETIUM-PSMA I&T COMPOSITION AND DOSIMETRY, KIT, METHOD OF MAKING, AND METHOD OF USING THEREOF” (Curium US LLC, priority 2022, published 2025)
Values joined by “and” are separate entries in the source; they are usually repeats but may differ in a detail not shown here. Identical values can stand only once.

How the values were obtained:
[1] = Radiochemical purity of ^177Lu-PSMA I&T by HPLC in different formulation compositions, hours post EOS (Example 3); type: physicochemical
Procedure: Product formulation details are described in Table 6.
Radiochemical purity of each solution was followed by HPLC up to 71-93 hours post-radiolabeling.

[2] = Cycle 3 dosimetry (TACs of cycle 1 scaled to cycle 3 time points); type: in vivo, human; details: for Absorbed Dose in Cycle 3, Mean / Absorbed Dose in Cycle 3, max / Absorbed Dose in Cycle 3, min: N = 16
Procedure: (§1) To evaluate potential changes in the tracer's kinetics and uptake after multiple treatment cycles, 16 of the 27 patients included in the dosimetry sub study, were imaged at both cycle 1 and cycle 3. Among these, at cycle 3, three patients were imaged at all 4 timepoints and the other 13 were imaged at one or two timepoints only (24 h, 48 h or both 24 h and 48 h) (Table 2). For these 13 patients, the TACs obtained at cycle 1 were used for each source organ and scaled to the normalized activity value(s) measured at Cycle 3. For patients imaged at two timepoints, the TACs were preferably scaled using the average scaling factor between the two timepoints.
A subgroup of 16 out of the 27 patients underwent and additional dosimetry assessment at Cycle 3. Among these, three patients had dosimetry performed based on images taken at 4 timepoints, while the remaining patients had dosimetry performed at 1 or 2 imaging timepoints only.
as §1, with “7 in Appendix 1).” for “2).”

[3] = Batch release QC / patient dose batch data; type: physicochemical; details: patient dose batches
Procedure: In another embodiment, the radioactivity is measured in a dose calibrator. The radioactive amount of [^177Lu]Lu-PSMA I&T is determined when the dose is dispensed.
In one embodiment, bacterial endotoxin content is determined for each batch before release using a PTS-tester (Ph Eur method D) and sterility is determined according to Ph Eur.
The specifications listed were used as release parameters except for sterility testing. Sterility was tested on all batches post-release.

[4] = Lacrimal Glands (OLINDA sphere model)
[5] = Lacrimal Glands, OLINDA sphere model

In the case of `O=C([O-])CC[C@H](NC(=O)N[C@@H](CCCCNC(=O)CCCCCCC(=O)NCCCC[C@@H](NC(=O)[C@@H](Cc1ccccc1)NC(=O)[C@@H](Cc1ccc(O)c(I)c1)NC(=O)CC[C@H](C(=O)[O-])N1CCN(CC(=O)[O-])CCN(CC(=O)[O-])CCN(CC(=O)[O-])CC1)C(=O)[O-])C(=O)[O-])C(=O)[O-].[177Lu+3].[H+].[H+].[H+].[H+].[H+]` [^177Lu-PSMA I&T, (3S,7S,26R,29R,32R,37R)-29-benzyl-32-(4-hydroxy-3-iodobenzyl)-5,13,20,28,31,34-hexaoxo-37-(4,7,10-tris(carboxymethyl)-1,4,7,10-tetraazacyclododecan-1-yl)-4,6,12,21,27,30,33-heptaazaheptatriacontane-1,3,7,26,37-pentacarboxylic acid; lutetium-177 (III)], the “radiochemical purity as measured by HPLC” value ([1]; 10 ml high RAC formulation, 42.5 mg/ml ascorbic acid, 0 hours post EOS) is reported as “at least 99%”, the “radiochemical purity as measured by HPLC” value ([1]; 10 ml high RAC formulation, 42.5 mg/ml ascorbic acid, 46 hours post EOS) is reported as “at least 93.3%” and the “radiochemical purity as measured by HPLC” value ([1]; 20 ml low RAC formulation, 31 mg/ml ascorbic acid, 0 hours post EOS) is reported as “at least 99.1%”. For the same compound, the “adequate radiochemical stability (radiochemical purity at least 95%)” value ([1]; about 31 mg/ml ascorbic acid, pH about 4.5, radioactivity concentration about 640 MBq/ml or below) was “four”, the “decrease in radiochemical purity over time at pH 4.5 compared with pH 7” value ([1]; high RAC solutions) was “two times slower” and the radiochemical purity ([1]; high radioactivity concentration, pH 4.5, 42.5 mg/ml ascorbic acid, 24 hours post EOS) was 98.0%. It also gave a radiochemical purity ([1]; high radioactivity concentration, pH 4.5, 42.5 mg/ml ascorbic acid, 46 hours post EOS) of 96.7%, a radiochemical purity ([1]; high radioactivity concentration, pH 4.5, 42.5 mg/ml ascorbic acid, 67 hours post EOS) of 95.3% and a radiochemical purity ([1]; high radioactivity concentration, pH 4.5, 42.5 mg/ml ascorbic acid, 71 hours post EOS) of 95.2%. The “radiochemical stability (radiochemical purity)” value ([1]; low RAC solution, pH 4.5, ascorbic acid 31 mg/ml, for 72 hours or longer) was “above 95.0%”, the radiochemical purity ([1]; low radioactivity concentration 579 MBq/ml, pH 4.5, 21 mg/ml ascorbic acid, 92 hours post EOS) was 96.0% and the radiochemical purity ([1]; low radioactivity concentration 588.5 MBq/ml, pH 4.5, 31 mg/ml ascorbic acid, 20 hours post EOS) was 98.7%. For the same compound, the radiochemical purity ([1]; low radioactivity concentration 588.5 MBq/ml, pH 4.5, 31 mg/ml ascorbic acid, 44 hours post EOS) was 98.0%, the radiochemical purity ([1]; low radioactivity concentration 588.5 MBq/ml, pH 4.5, 31 mg/ml ascorbic acid, 69 hours post EOS) was 97.4% and the radiochemical purity ([1]; low radioactivity concentration 588.5 MBq/ml, pH 4.5, 31 mg/ml ascorbic acid, 93 hours post EOS) was 97.0%. The radiochemical purity ([1]; low radioactivity concentration 626 MBq/ml, pH 5.0, 31 mg/ml ascorbic acid, 0 hours post EOS) was 99.2%, the radiochemical purity ([1]; low radioactivity concentration 626 MBq/ml, pH 5.0, 31 mg/ml ascorbic acid, 25 hours post EOS) was 98.4% and the radiochemical purity ([1]; low radioactivity concentration 626 MBq/ml, pH 5.0, 31 mg/ml ascorbic acid, 47 hours post EOS) was 97.3%. For the same compound, the “radiochemical stability (radiochemical purity)” value ([1]; lowered formulation radioactivity concentration, for 72 hours, experiments conducted previously) was “above 95.0%”, the “Absorbed Dose in Cycle 3, Mean” value ([2]; Adrenals) was 0.02 Gy/GBq and the “Absorbed Dose in Cycle 3, max” value ([2]; Adrenals) was 0.03 Gy/GBq. The “Absorbed Dose in Cycle 3, min” value ([2]; Adrenals) was 0.01 Gy/GBq, the “Absorbed Dose in Cycle 3, Mean” value ([2]; Brain) was 0.01 Gy/GBq and the “Absorbed Dose in Cycle 3, max” value ([2]; Brain) was 0.02 Gy/GBq. The “Absorbed Dose in Cycle 3, min” value ([2]; Brain) was 0.00 Gy/GBq, the “absorbed radiation dose, kidneys (mean ± SD)” value ([2]; Cycle 3, 16 patients imaged at cycle 1 and 3) was 0.49±0.19 Gy/GBq and the “Absorbed Dose in Cycle 3, Mean” value ([2]; Esophagus) was 0.01 Gy/GBq. For the same compound, the “Absorbed Dose in Cycle 3, max” value ([2]; Esophagus) was 0.02 Gy/GBq, the “Absorbed Dose in Cycle 3, min” value ([2]; Esophagus) was 0.00 Gy/GBq and the “Absorbed Dose in Cycle 3, Mean” value ([2]; Eyes) was 0.01 Gy/GBq. The “Absorbed Dose in Cycle 3, max” value ([2]; Eyes) was 0.02 Gy/GBq, the “Absorbed Dose in Cycle 3, min” value ([2]; Eyes) was 0.00 Gy/GBq and the “Absorbed Dose in Cycle 3, Mean” value ([2]; Gallbladder wall) was 0.01 Gy/GBq. The “Absorbed Dose in Cycle 3, max” value ([2]; Gallbladder wall) was 0.02 Gy/GBq, the “Absorbed Dose in Cycle 3, min” value ([2]; Gallbladder wall) was 0.00 Gy/GBq and the “Absorbed Dose in Cycle 3, Mean” value ([2]; Heart wall) was 0.01 Gy/GBq. For the same compound, the “Absorbed Dose in Cycle 3, max” value ([2]; Heart wall) was 0.02 Gy/GBq, the “Absorbed Dose in Cycle 3, min” value ([2]; Heart wall) was 0.00 Gy/GBq and the “Absorbed Dose in Cycle 3, Mean” value ([2]; Kidneys) was 0.49 Gy/GBq. The “Absorbed Dose in Cycle 3, max” value ([2]; Kidneys) was 0.85 Gy/GBq, the “Absorbed Dose in Cycle 3, min” value ([2]; Kidneys) was 0.19 Gy/GBq and the “Absorbed Dose in Cycle 3, Mean” value [2, 4] was 0.29 Gy/GBq. The “Absorbed Dose in Cycle 3, max” value [2, 4] was 0.73 Gy/GBq, the “Absorbed Dose in Cycle 3, min” value [2, 4] was 0.10 Gy/GBq and the “Absorbed Dose in Cycle 3, Mean” value [2, 5] was 0.29 Gy/GBq. The “Absorbed Dose in Cycle 3, max” value [2, 5] was 0.73 Gy/GBq, the “Absorbed Dose in Cycle 3, min” value [2, 5] was 0.10 Gy/GBq and the “Absorbed Dose in Cycle 3, Mean” value ([2]; Left colon) was 0.41 Gy/GBq. The “Absorbed Dose in Cycle 3, max” value ([2]; Left colon) was 0.94 Gy/GBq, the “Absorbed Dose in Cycle 3, min” value ([2]; Left colon) was 0.07 Gy/GBq and the “Absorbed Dose in Cycle 3, Mean” value ([2]; Liver) was 0.06 Gy/GBq. The “Absorbed Dose in Cycle 3, max” value ([2]; Liver) was 0.15 Gy/GBq, the “Absorbed Dose in Cycle 3, min” value ([2]; Liver) was 0.00 Gy/GBq and the “Absorbed Dose in Cycle 3, Mean” value ([2]; Lungs) was 0.01 Gy/GBq. For the same compound, the “Absorbed Dose in Cycle 3, max” value ([2]; Lungs) was 0.02 Gy/GBq, the “Absorbed Dose in Cycle 3, min” value ([2]; Lungs) was 0.00 Gy/GBq and the “Absorbed Dose in Cycle 3, Mean” value ([2]; Osteogenic cells) was 0.02 Gy/GBq. For the same compound, the “Absorbed Dose in Cycle 3, max” value ([2]; Osteogenic cells) was 0.09 Gy/GBq, the “Absorbed Dose in Cycle 3, min” value ([2]; Osteogenic cells) was 0.00 Gy/GBq and the “Absorbed Dose in Cycle 3, Mean” value ([2]; Pancreas) was 0.01 Gy/GBq. The “Absorbed Dose in Cycle 3, max” value ([2]; Pancreas) was 0.02 Gy/GBq, the “Absorbed Dose in Cycle 3, min” value ([2]; Pancreas) was 0.00 Gy/GBq and the “Absorbed Dose in Cycle 3, Mean” value ([2]; Prostate) was 0.01 Gy/GBq. For the same compound, the “Absorbed Dose in Cycle 3, max” value ([2]; Prostate) was 0.02 Gy/GBq, the “Absorbed Dose in Cycle 3, min” value ([2]; Prostate) was 0.01 Gy/GBq and the “Absorbed Dose in Cycle 3, Mean” value ([2]; Rectum) was 0.39 Gy/GBq. The “Absorbed Dose in Cycle 3, max” value ([2]; Rectum) was 0.90 Gy/GBq, the “Absorbed Dose in Cycle 3, min” value ([2]; Rectum) was 0.06 Gy/GBq and the “Absorbed Dose in Cycle 3, Mean” value ([2]; Red Marrow) was 0.03 Gy/GBq. For the same compound, the “Absorbed Dose in Cycle 3, max” value ([2]; Red Marrow) was 0.17 Gy/GBq, the “Absorbed Dose in Cycle 3, min” value ([2]; Red Marrow) was 0.00 Gy/GBq and the “Absorbed Dose in Cycle 3, Mean” value ([2]; Right Colon) was 0.22 Gy/GBq. The “Absorbed Dose in Cycle 3, max” value ([2]; Right Colon) was 0.51 Gy/GBq, the “Absorbed Dose in Cycle 3, min” value ([2]; Right Colon) was 0.04 Gy/GBq and the “Absorbed Dose in Cycle 3, Mean” value ([2]; Salivary Glands) was 0.20 Gy/GBq. The “Absorbed Dose in Cycle 3, max” value ([2]; Salivary Glands) was 0.69 Gy/GBq, the “Absorbed Dose in Cycle 3, min” value ([2]; Salivary Glands) was 0.04 Gy/GBq and the “Absorbed Dose in Cycle 3, Mean” value ([2]; Small intestine) was 0.04 Gy/GBq. For the same compound, the “Absorbed Dose in Cycle 3, max” value ([2]; Small intestine) was 0.10 Gy/GBq, the “Absorbed Dose in Cycle 3, min” value ([2]; Small intestine) was 0.01 Gy/GBq and the “Absorbed Dose in Cycle 3, Mean” value ([2]; Spleen) was 0.03 Gy/GBq. The “Absorbed Dose in Cycle 3, max” value ([2]; Spleen) was 0.12 Gy/GBq, the “Absorbed Dose in Cycle 3, min” value ([2]; Spleen) was 0.01 Gy/GBq and the “Absorbed Dose in Cycle 3, Mean” value ([2]; Stomach Wall) was 0.01 Gy/GBq. The “Absorbed Dose in Cycle 3, max” value ([2]; Stomach Wall) was 0.02 Gy/GBq, the “Absorbed Dose in Cycle 3, min” value ([2]; Stomach Wall) was 0.00 Gy/GBq and the “Absorbed Dose in Cycle 3, Mean” value ([2]; Testes) was 0.01 Gy/GBq. The “Absorbed Dose in Cycle 3, max” value ([2]; Testes) was 0.02 Gy/GBq, the “Absorbed Dose in Cycle 3, min” value ([2]; Testes) was 0.00 Gy/GBq and the “Absorbed Dose in Cycle 3, Mean” value ([2]; Thymus) was 0.01 Gy/GBq. For the same compound, the “Absorbed Dose in Cycle 3, max” value ([2]; Thymus) was 0.02 Gy/GBq, the “Absorbed Dose in Cycle 3, min” value ([2]; Thymus) was 0.00 Gy/GBq and the “Absorbed Dose in Cycle 3, Mean” value ([2]; Thyroid) was 0.01 Gy/GBq. For the same compound, the “Absorbed Dose in Cycle 3, max” value ([2]; Thyroid) was 0.02 Gy/GBq, the “Absorbed Dose in Cycle 3, min” value ([2]; Thyroid) was 0.00 Gy/GBq and the “Absorbed Dose in Cycle 3, Mean” value ([2]; Total Body) was 0.02 Gy/GBq. For the same compound, the “Absorbed Dose in Cycle 3, max” value ([2]; Total Body) was 0.03 Gy/GBq, the “Absorbed Dose in Cycle 3, min” value ([2]; Total Body) was 0.01 Gy/GBq and the “Absorbed Dose in Cycle 3, Mean” value ([2]; Urinary Bladder wall) was 0.45 Gy/GBq. For the same compound, the “Absorbed Dose in Cycle 3, max” value ([2]; Urinary Bladder wall) was 0.70 Gy/GBq and the “Absorbed Dose in Cycle 3, min” value ([2]; Urinary Bladder wall) was 0.36 Gy/GBq.
In the case of `O=C([O-])CC[C@H](NC(=O)N[C@@H](CCCCNC(=O)CCCCCCC(=O)NCCCC[C@@H](NC(=O)[C@@H](Cc1ccccc1)NC(=O)[C@@H](Cc1ccc(O)c(I)c1)NC(=O)CC[C@H](C(=O)[O-])N1CCN(CC(=O)[O-])CCN(CC(=O)[O-])CCN(CC(=O)[O-])CC1)C(=O)[O-])C(=O)[O-])C(=O)[O-].[177Lu+3].[H+].[H+].[H+].[H+].[H+]` [Lu-177 PSMA I&T], the “Measured PSMA Sum” value [3] is reported as 5.0 µg/mL and the “Theoretical PSMA Sum” value [3] is reported as 5.9 µg/mL and 6.4 µg/mL.
